These are literature values, as cited in patent US11207297B2, “Liquid pharmaceutical composition of clonidine” (SYRI LTD, priority 2016, dated 2021).

The conditions of the series: after oral administration.

In the case of `Clc1cccc(Cl)c1N=C1NCCN1` [clonidine, N-(2,6-dichlorophenyl)-4,5-dihydro-1H-imidazol-2-amine], the “Absorption from the gastrointestinal tract” value was “almost completely absorbed”.
